One data set concerns the target T1, serotonin transporter (Macaca mulatta, UniProt Q9MYX0).
T1 construct: The serotonin transporter was assayed in caudate-putamen membranes using conditions similar to those for the dopamine transporter; from tissue; host or cells: caudate-putamen membranes of cynomolgus or rhesus monkey brain
Kind of data set: Serotonin transporter assay: inhibition of {3H}citalopram binding in caudate-putamen membranes. The settings on record: IC50 (nM) SERT, monkey caudate-putamen, mean of 2 or more independent experiments in triplicate. Also on record: species or system rhesus or cynomolgus monkey.

A further data set concerns the target T2, dopamine transporter (Macaca fascicularis, UniProt Q9GJT6).
T2 construct: The caudate-putamen was dissected from coronal slices and yielded 1.4±0.4 g tissue; Membranes were prepared as described previously; from tissue; host or cells: caudate-putamen membranes of cynomolgus or rhesus monkey brain
The data set is described as follows: Dopamine transporter assay: inhibition of {3H}WIN 35,428 binding in caudate-putamen membranes. Also on record: species or system rhesus or cynomolgus monkey. To be noted: for SERT/DAT: selectivity ratio IC50 SERT / IC50 DAT; for IC50: inhibition of {3H}WIN 35,428 binding, mean of 2 or more independent experiments in triplicate.

Where [1] appears, read: IC50 (nM) DAT, monkey caudate-putamen.

The results in this text go back to US7199132B2, “Tropane analogs and methods for inhibition of monoamine transport” (Organix, Inc., priority 2001, dated 2007).

The melting point is the temperature of the solid-liquid transition. The term IC50 denotes the concentration that gives 50% inhibition.

Like-named read-outs stand apart in the source and are kept apart here.

T2 sequence (Q9GJT6 whole entry): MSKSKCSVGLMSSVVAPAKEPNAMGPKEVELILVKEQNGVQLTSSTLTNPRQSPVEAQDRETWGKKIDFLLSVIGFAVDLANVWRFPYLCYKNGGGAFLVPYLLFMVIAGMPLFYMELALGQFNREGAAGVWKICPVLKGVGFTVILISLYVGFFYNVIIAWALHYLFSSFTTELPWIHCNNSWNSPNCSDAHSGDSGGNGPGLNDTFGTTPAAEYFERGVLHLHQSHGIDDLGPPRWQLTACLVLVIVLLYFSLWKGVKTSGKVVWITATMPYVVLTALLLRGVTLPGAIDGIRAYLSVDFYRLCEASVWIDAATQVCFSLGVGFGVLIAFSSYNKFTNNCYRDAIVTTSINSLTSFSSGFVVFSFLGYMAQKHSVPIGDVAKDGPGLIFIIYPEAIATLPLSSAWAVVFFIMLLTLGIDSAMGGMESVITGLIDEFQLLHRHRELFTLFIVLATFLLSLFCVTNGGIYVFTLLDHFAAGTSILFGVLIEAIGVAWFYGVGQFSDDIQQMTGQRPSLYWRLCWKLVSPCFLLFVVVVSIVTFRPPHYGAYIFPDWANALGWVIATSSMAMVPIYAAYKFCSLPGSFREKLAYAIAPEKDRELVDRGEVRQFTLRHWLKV
T1 sequence (Q9MYX0 whole entry): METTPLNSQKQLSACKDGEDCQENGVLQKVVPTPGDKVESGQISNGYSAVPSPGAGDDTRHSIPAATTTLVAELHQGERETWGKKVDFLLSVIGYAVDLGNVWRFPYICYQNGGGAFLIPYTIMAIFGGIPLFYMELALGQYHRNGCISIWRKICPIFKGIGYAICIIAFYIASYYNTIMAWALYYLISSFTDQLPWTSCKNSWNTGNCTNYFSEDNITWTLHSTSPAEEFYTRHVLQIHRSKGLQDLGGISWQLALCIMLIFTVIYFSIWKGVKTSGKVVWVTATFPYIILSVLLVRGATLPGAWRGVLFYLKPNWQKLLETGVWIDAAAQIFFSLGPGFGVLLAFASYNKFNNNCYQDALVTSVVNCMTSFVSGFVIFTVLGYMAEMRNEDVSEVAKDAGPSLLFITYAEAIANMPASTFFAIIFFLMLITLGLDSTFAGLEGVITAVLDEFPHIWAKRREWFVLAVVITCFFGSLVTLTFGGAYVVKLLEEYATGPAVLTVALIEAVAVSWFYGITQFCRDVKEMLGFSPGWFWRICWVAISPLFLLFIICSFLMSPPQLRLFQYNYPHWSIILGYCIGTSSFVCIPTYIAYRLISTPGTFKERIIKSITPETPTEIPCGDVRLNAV

With `COC(=O)[C@H]1[C@@H](c2ccc3ccccc3c2)C[C@@H]2[C@@H](O)C[C@H]1N2C` (relative stereo) [Compound 14b, 2β-Carbomethoxy-3β-(2-naphthyl)-6β-hydroxy-8-methyl-8-azabicyclo{3.2.1}octane], the melting point lay within 84 to 86 °C. On serotonin transporter, this compound registered an IC50 of 34.2 nM. Moreover, the SERT/DAT on dopamine transporter turned out to be 4.

In the case of `COC(=O)C1C(c2ccc(Cl)c(Cl)c2)CC2CC(O)C1N2C` (single isomer, unassigned) [Compound (1S)-18a], at dopamine transporter (setting [1]), the IC50 lay within 0.3 to 7.4 nM. On dopamine transporter (compared with 16a), the “fold more selective (DAT vs SERT) than 16a” value is recorded as 22 fold. For the same compound, at dopamine transporter (compared with (1S)-15a), the “fold more selective (DAT vs SERT) than (1S)-15a” value is 32 fold.

`COC(=O)C1C(c2ccc(Cl)c(Cl)c2)CC2CC(O)C1N2C` (single isomer, unassigned) [Compound (1R)-18a] returned an IC50 on dopamine transporter (setting [1]) of 265 to 2690 nM.

On to `COC(=O)[C@@H]1[C@H]2CC[C@@H](C[C@H]1c1ccc(Cl)c(Cl)c1)N2C` [Compound 16a, reference compound], for which the IC50 at dopamine transporter (monkey caudate-putamen, read-out: IC50 (nM) DAT) worked out at 0.38 nM. Also, on dopamine transporter, the SERT/DAT is recorded as 73.

In turn, `COC(=O)[C@H]1[C@@H](c2ccc(Cl)c(Cl)c2)C[C@@H]2CC[C@H]1N2C` [Compound 13a, (1R)-3β-(3,4-di-chlorophenyl)-tropane-2β-carboxylic acid methyl ester, reference compound] came in with a half-inhibitory concentration (IC50) at serotonin transporter of 2.47 nM. For the same compound, at dopamine transporter, the SERT/DAT came to 2.

Regarding `COC(=O)[C@@H]1[C@H]2[C@H](O)C[C@@H](C[C@@H]1c1ccccc1)N2C` (racemic) [Compound 15d, 2β-Carbomethoxy-3β-phenyl-7β-hydroxy-8-methyl-8-azabicyclo{3.2.1}octane], the melting point lay in the range of 165.8 to 167.8 °C. At serotonin transporter, this compound yielded a half-maximal inhibitory concentration (IC50) greater than 10000 nM.

For `COC(=O)[C@H]1[C@@H](c2ccc(Cl)c(Cl)c2)C[C@@H]2CC(=O)[C@H]1N2C` (relative stereo) [Compound 19, 2β-Carbomethoxy-3β-(3,4-dichlorophenyl)-8-methyl-8-azabicyclo{3.2.1}oct-7-one], the melting point was 84.4 to 86.4 °C. For the same compound, the IC50 at serotonin transporter turned out to be 290 nM.

As to `COC(=O)[C@@H]1[C@H]2CC[C@@H](C[C@H]1c1ccc(F)cc1)N2C` (relative stereo) [Compound 16c, reference compound], the SERT/DAT on dopamine transporter was 63.

Consider `COC(=O)[C@H]1[C@@H](c2ccccc2)C[C@@H]2CC[C@H]1N2C` (relative stereo) [Compound 13d, reference compound], for which the half-inhibitory concentration (IC50) at dopamine transporter (setting [1]) worked out at 65 nM.

Consider `COC(=O)C1=C(c2ccccc2)C[C@@H]2CC[C@H]1N2C` (relative stereo) [Compound 6d, reference compound], for which the IC50 on serotonin transporter amounted to 28600 nM. For the same compound, at dopamine transporter, the SERT/DAT came out at 11.

`COC(=O)C1=C(c2ccc(Cl)c(Cl)c2)CC2CCC1N2C` (stereo not shown) [Compound 6a, reference compound]: the half-inhibitory concentration (IC50) at serotonin transporter is 867 nM; at dopamine transporter (setting [1]) it was 1.16 nM. Besides, at dopamine transporter, the SERT/DAT was determined as 747.

`COC(=O)[C@@H]1[C@H]2C[C@H](O)[C@@H](C[C@H]1c1ccc(F)cc1)N2C` (relative stereo) [Compound 17c, 2β-Carbomethoxy-3α-(4-fluorophenyl)-6β-hydroxy-8-methyl-8-azabicyclo{3.2.1}octane] gave a melting point of 148 to 150 °C. At dopamine transporter, the SERT/DAT was 8.

For `COC(=O)[C@@H]1[C@H]2[C@H](O)C[C@@H](C[C@H]1OC(c1ccc(F)cc1)c1ccc(F)cc1)N2C` (relative stereo) [Compound 32b, 2β-Carbomethoxy-3α-bis(fluorophenyl)methoxy-7β-hydroxy-8-methyl-8-azabicyclo{3.2.1}octane], the melting point lay in the range of 150 to 152 °C. Moreover, the concentration for half-maximal inhibition (IC50) on serotonin transporter turned out to be 9560 nM.

Turning to `COC(=O)[C@H]1[C@@H](c2ccc(F)cc2)C[C@@H]2CC[C@H]1N2C` [Compound 13c, (1R)-3β-(4-fluorophenyl)tropane-2β-carboxylic acid methyl ester, reference compound], the half-maximal inhibitory concentration (IC50) turned out to be 160 nM at serotonin transporter and 11 nM at dopamine transporter (setting [1]). The SERT/DAT on dopamine transporter is reported as 15.

`COC(=O)C1=C(c2ccc(Cl)c(Cl)c2)C[C@H]2C[C@H](O)[C@@H]1N2C` [(1R)-8a, (1R)-2-Carbomethoxy-3-(3,4-dichlorophenyl)-7β-hydroxy-8-methyl-8-azabicyclo{3.2.1}oct-2-ene]: the half-maximal inhibitory concentration (IC50) at serotonin transporter was 1590 nM; at dopamine transporter (setting [1]), 265 to 2690 nM.

Compound `COC(=O)[C@@H]1[C@H]2CC[C@@H](C[C@H]1c1ccc3ccccc3c1)N2C` (relative stereo) [Compound 16b, reference compound] yielded a 50% inhibitory concentration (IC50) at dopamine transporter (setting [1]) of 0.57 nM. Moreover, the SERT/DAT on dopamine transporter was 10.

On to `COC(=O)[C@@H]1[C@H]2[C@H](O)C[C@@H](C[C@H]1c1ccccc1)N2C` (relative stereo) [Compound 18d, 2β-Carbomethoxy-3α-phenyl-7β-hydroxy-8-methyl-8-azabicyclo{3.2.1}octane], for which the melting point lay in the range of 165 to 167 °C.

`COC(=O)[C@@H]1[C@H]2C[C@H](O)[C@@H](C[C@H]1c1ccccc1)N2C` (relative stereo) [Compound 17d, 2β-Carbomethoxy-3α-phenyl-6β-hydroxy-8-methyl-8-azabicyclo{3.2.1}octane] registered a melting point of 138 to 140 °C. In addition, at dopamine transporter, the SERT/DAT is greater than 3.

Consider `COC(=O)C1=C(c2ccc(Cl)c(Cl)c2)C[C@@H]2C[C@@H](O)[C@H]1N2C` [(1S)-8a, (1S)-2-Carbomethoxy-3-(3,4-dichlorophenyl)-7β-hydroxy-8-methyl-8-azabicyclo{3.2.1}oct-2-ene], for which the IC50 on serotonin transporter is 5370 nM.

In turn, `COC(=O)C1C(c2ccc(Cl)c(Cl)c2)CC2C[C@@H](O)C1N2C` (stereo partly shown) [Compound 33] returned an IC50 at serotonin transporter of 533 nM. The “potency at the DAT relative to cocaine” value at dopamine transporter (compared with cocaine) was “almost twice as potent as cocaine”.

`COC(=O)[C@@H]1[C@H]2C[C@H](O)[C@@H](C[C@H]1OC(c1ccc(F)cc1)c1ccc(F)cc1)N2C` (relative stereo) [Compound 32a, 2β-Carbomethoxy-3α-bis(4-fluorophenyl)methoxy-6β-hydroxy-8-methyl-8-azabicyclo{3.2.1}octane] showed a concentration for half-maximal inhibition (IC50) at serotonin transporter of 4850 nM.

Regarding `COC(=O)[C@@H]1[C@H]2[C@@H](O)C[C@@H](C[C@H]1c1ccc(Cl)c(Cl)c1)N2C` (relative stereo) [Compound 30b, 2β-Carbomethoxy-3α-(3,4-dichlorophenyl)-7α-hydroxy-8-methyl-8-azabicyclo{3.2.1}octane], the melting point was in the range of 121 to 123 °C. For the same compound, at serotonin transporter, the IC50 amounted to 991 nM.

As for `COC(=O)C1C(c2ccc(Cl)c(Cl)c2)CC2CC(O)C1N2C` (single isomer, unassigned) [(1R)-15a], the values for the half-inhibitory concentration (IC50) on serotonin transporter and on dopamine transporter (setting [1]) were 139 nM and 265 to 2690 nM, respectively. At dopamine transporter, the SERT/DAT was 0.05.

Consider `COC(=O)C1C(c2ccc3ccccc3c2)CC2CCC1N2C` (stereo not shown) [Compound 13b, reference compound], for which the SERT/DAT on dopamine transporter worked out at 5.

Regarding `COC(=O)C1=C(c2ccc(F)cc2)C[C@@H]2C[C@@H](O)[C@H]1N2C` (racemic) [Compound 8c, 2-Carbomethoxy-3-(4-fluorophenyl)-7β-hydroxy-8-methyl-8-azabicyclo{3.2.1}oct-2-ene], at serotonin transporter, the half-inhibitory concentration (IC50) was greater than 10000 nM. Besides, the SERT/DAT at dopamine transporter is 1.

`COC(=O)C1C(c2ccccc2)CC2[C@@H](O)CC1N2C` (stereo partly shown) [Compound 34] registered a 50% inhibitory concentration (IC50) at serotonin transporter greater than 20000 nM. Moreover, the “inhibition of {3H}WIN 35,428 binding, result in words” value on dopamine transporter (monkey caudate-putamen) was “inactive”.

In the case of `COC(=O)C1C(c2ccc(Cl)c(Cl)c2)CC2CC(O)C1N2C` (single isomer, unassigned) [(1S)-15a], the IC50 on serotonin transporter is 15 nM; on dopamine transporter (setting [1]), 0.3 to 7.4 nM. The “fold more selective (DAT vs SERT) than 13a” value on dopamine transporter (compared with 13a) is 25 fold. Besides, the SERT/DAT at dopamine transporter is 50.

For `COC(=O)[C@@H]1[C@H]2C[C@H](O)[C@@H](C[C@H]1c1ccc(Cl)c(Cl)c1)N2C` (relative stereo) [Compound 17a, 2β-Carbomethoxy-3α-(3,4-dichlorophenyl)-6β-hydroxy-8-methyl-8-azabicyclo{3.2.1}octane], the melting point is 129.1 to 131.1 °C. Moreover, the SERT/DAT at dopamine transporter came out at 238.

In the case of `COC(=O)C1=C(c2ccc(Cl)c(Cl)c2)C[C@@H]2C[C@@H](O)[C@H]1N2C` (racemic) [Compound 8a, 2-Carbomethoxy-3-(3,4-dichlorophenyl)-7β-hydroxy-8-methyl-8-azabicyclo{3.2.1}oct-2-ene], the melting point was in the range of 130.4 to 132.4 °C. For the same compound, on serotonin transporter, the 50% inhibitory concentration (IC50) is greater than 6000 nM.

As for `COC(=O)[C@@H]1[C@H]2[C@H](O)C[C@@H](C[C@H]1c1ccc(Cl)c(Cl)c1)N2C` (relative stereo) [Compound 18a, 2β-Carbomethoxy-3α-(3,4-dichlorophenyl)-7β-hydroxy-8-methyl-8-azabicyclo{3.2.1}octane], the melting point fell in the range of 148.5 to 150 °C.

In the case of `COC(=O)C1=C(c2ccc3ccccc3c2)CC2CCC1N2C` (stereo not shown) [Compound 6b, reference compound], the figures for the IC50 at serotonin transporter and on dopamine transporter (setting [1]) were 109 nM and 2.94 nM, respectively. For the same compound, the SERT/DAT on dopamine transporter came out at 37.

With `COC(=O)C1=C(c2ccc(F)cc2)CC2CCC1N2C` (stereo not shown) [Compound 6c, reference compound], the IC50 at serotonin transporter was found to be 7990 nM; on dopamine transporter (setting [1]) it was 408 nM. For the same compound, the SERT/DAT on dopamine transporter stood at 20.

Take `COC(=O)[C@@H]1[C@H]2C[C@@H](O)[C@@H](C[C@H]1c1ccc(Cl)c(Cl)c1)N2C` (relative stereo) [Compound 30a, 2β-Carbomethoxy-3α-(3,4-dichlorophenyl)-6α-hydroxy-8-methyl-8-azabicyclo{3.2.1}octane]: the melting point lay within 161.2 to 162.2 °C. The same compound had an IC50 at serotonin transporter of 10700 nM.
